The first test relates to Ba/F3 cells KRAS G12D. Description: Ba/F3 proliferation assay (KRAS G12D). Type of test: cell-based. To be noted: Mus musculus, BaF3, 72 h, AlamarBlue viability. The method in brief: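 Ba/F3 cells retrovirally transduced with KRAS G12 mutant, puromycin-selected, grown IL-3-independent; seeded in RPMI-1640 + 10% FCS without IL-3. Logarithmic compound dose series in duplicate, 72 h at 37° C., AlamarBlue fluorescence as % of DMSO control; IC50 from four-parameter non-linear regression.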
In the case of `C[C@H](Oc1nc(-c2noc3c2CCC[C@@]32SCCc3sc(N)c(C#N)c32)nc2c1COC[C@]21CCOC1)[C@@H]1CCCN1C` [II-16], half-maximal inhibition (IC50) required 3 nM.
Take `C[C@H](Oc1nc(-c2onc3c2CCC[C@@]32CCCc3sc(N)c(C#N)c32)nc2c1n(C)c(=O)n2[C@@H]1CCOC1)[C@@H]1CC[C@H](C)N1C` [I-26]: 5 nM corresponded to half-maximal inhibition (IC50). This IC50 lies about 1.7-fold higher than the previous one.
Still for that read-out and setting: under `CO[C@H]1CCN(C)[C@@H]1[C@H](C)Oc1nc(-c2onc3c2CCC[C@@]32CCCc3sc(N)c(C#N)c32)nc2c1n(C)c(=O)n2[C@@H]1CCCOC1` [I-6] stands 9 nM; under `C[C@H](Oc1nc(-c2noc3c2CCC[C@@]32CCCc3sc(N)c(C#N)c32)nc2c1COC[C@]21CCOC1)[C@@H]1CCCN1C` [II-8], 4 nM.
In turn, `CO[C@@H]1C[C@@H]([C@H](C)Oc2nc(-c3onc4c3CCC[C@@]43CCCc4sc(N)c(C#N)c43)nc3c2n(C)c(=O)n3[C@@]23COC[C@@H]2C3)N(C)C1` [I-46] displayed an IC50 of 15 nM.
Compound `C[C@H](Oc1nc(-c2noc3c2CCC[C@@]32CCCc3sc(N)c(C#N)c32)nc2c1CNC[C@]21CCOC1)[C@@H]1CCCN1C` [II-15] displayed an IC50 of 8 nM. This IC50 lies about 1.9-fold lower than the previous one.
On to `C[C@H](Oc1nc(-c2onc3c2CCC[C@@]32CCCc3sc(N)c(C#N)c32)nc2c1n(C)c(=O)n2[C@H]1CCC[C@@H]1O)[C@@H]1CCCN1C` [I-19], for which the IC50 is 470 nM. This IC50 lies about 59-fold higher than the previous one.
The same measure, in the same setting: the same measure for `CO[C@H]1CCN(C)[C@@H]1[C@H](C)Oc1nc(-c2noc3c2CCC[C@@]32CCCc3sc(N)c(C#N)c32)nc2c1n(C)c(=O)n2[C@@H]1CCOC1` [II-1]: 9 nM; for `C[C@H](Oc1nc(-c2onc3c2CCC[C@@]32CCCc3sc(N)c(C#N)c32)nc2c1n(C)c(=O)n2[C@H]1CCOC1)[C@@H]1CCCN1C` [I-9]: 46 nM.
The same measure, in the same setting: the same measure for `C[C@H](Oc1nc(-c2onc3c2CCC[C@@]32CCCc3sc(N)c(C#N)c32)nc2c1[nH]c(=O)n2[C@@H]1CCCOC1)[C@@H]1CCCN1C` [I-13]: 141 nM; for `CO[C@@H]1C[C@@H]([C@H](C)Oc2nc(-c3noc4c3CCC[C@@]43CCCc4sc(N)c(C#N)c43)nc3c2n(C)c(=O)n3[C@@]23COC[C@@H]2C3)N(C)C1` [II-6]: 11 nM.

A further test concerns SK-CO-1 cells. Put plainly: SK-CO-1 CTG proliferation assay (120 h) (CRC, G12V). Type of test: cell-based. Conditions: Homo sapiens. On the procedure: (§1) SK—CO-1 cells (ATCC HTB-39) are dispensed into black 384-well plates, flat and clear bottom (Greiner, PNr. 781091) at a density of 500 cells per well in 60 μl EMEM (Sigma M5650)+10% FCS (fetal calf serum, HyClone, SH30084.03). Cells are incubated overnight at 37° C. in a humidified tissue culture incubator at 5% CO2. Compounds (10 mM stock in DMSO) are added at logarithmic dose series using the ECHO acoustic liquid handler system (Beckman Coulter), normalizing for added DMSO and including DMSO controls. All compound treatments are performed in technical duplicates. For the TO time point measurement, untreated cells are analyzed at the time of compound addition. Plates are incubated for 120 h, and cell viability is measured using CellTiter-Glo luminescent cell viability reagent (Promega product code G7570). Viability (stated as percent of control) is defined as relative luminescence units RLU of each well divided by the RLU of cells in DMSO controls. IC50 values are determined from viability measurements by non-linear regression using a four-parameter model.
(§2) IC50 values of representative compounds according to the invention measured with these assays in the indicated cell lines are presented in Table 46.
In turn, `C[C@H](Oc1nc(-c2noc3c2CCC[C@@]32SCCc3sc(N)c(C#N)c32)nc2c1COC[C@]21CCOC1)[C@@H]1CCCN1C` [II-16] showed an IC50 of 2 nM.
Regarding `C[C@H](Oc1nc(-c2onc3c2CCC[C@@]32CCCc3sc(N)c(C#N)c32)nc2c1n(C)c(=O)n2[C@@H]1CCOC1)[C@@H]1CC[C@H](C)N1C` [I-26], the IC50 came to 10 nM.
On the same count and under the same terms, the same measure for `CO[C@H]1CCN(C)[C@@H]1[C@H](C)Oc1nc(-c2onc3c2CCC[C@@]32CCCc3sc(N)c(C#N)c32)nc2c1n(C)c(=O)n2[C@@H]1CCCOC1` [I-6]: 7 nM.
Still for that read-out and setting: the same measure for `C[C@H](Oc1nc(-c2noc3c2CCC[C@@]32CCCc3sc(N)c(C#N)c32)nc2c1COC[C@]21CCOC1)[C@@H]1CCCN1C` [II-8]: 1 nM.
Same read-out and setting: the same measure for `CO[C@@H]1C[C@@H]([C@H](C)Oc2nc(-c3onc4c3CCC[C@@]43CCCc4sc(N)c(C#N)c43)nc3c2n(C)c(=O)n3[C@@]23COC[C@@H]2C3)N(C)C1` [I-46]: 4 nM; for `C[C@H](Oc1nc(-c2noc3c2CCC[C@@]32CCCc3sc(N)c(C#N)c32)nc2c1CNC[C@]21CCOC1)[C@@H]1CCCN1C` [II-15]: 5 nM.
Regarding `C[C@H](Oc1nc(-c2onc3c2CCC[C@@]32CCCc3sc(N)c(C#N)c32)nc2c1n(C)c(=O)n2[C@H]1CCC[C@@H]1O)[C@@H]1CCCN1C` [I-19], 190 nM corresponded to half-maximal inhibition (IC50).
`CO[C@H]1CCN(C)[C@@H]1[C@H](C)Oc1nc(-c2noc3c2CCC[C@@]32CCCc3sc(N)c(C#N)c32)nc2c1n(C)c(=O)n2[C@@H]1CCOC1` [II-1] gave an IC50 of 4 nM. Against the preceding compound, the IC50 is about 48-fold lower.
`C[C@H](Oc1nc(-c2onc3c2CCC[C@@]32CCCc3sc(N)c(C#N)c32)nc2c1n(C)c(=O)n2[C@H]1CCOC1)[C@@H]1CCCN1C` [I-9]: the IC50 was found to be 75 nM.
`C[C@H](Oc1nc(-c2onc3c2CCC[C@@]32CCCc3sc(N)c(C#N)c32)nc2c1[nH]c(=O)n2[C@@H]1CCCOC1)[C@@H]1CCCN1C` [I-13] displayed an IC50 of 48 nM. This IC50 lies about 1.6-fold lower than the previous one.
The same measure, in the same setting: the same measure for `CO[C@@H]1C[C@@H]([C@H](C)Oc2nc(-c3noc4c3CCC[C@@]43CCCc4sc(N)c(C#N)c43)nc3c2n(C)c(=O)n3[C@@]23COC[C@@H]2C3)N(C)C1` [II-6]: 2 nM.

The subject of another test is NCI-H727 cells. Put plainly: NCI-H727 CTG proliferation assay (120 h) (lung cancer, G12V). Conditions: Homo sapiens. The test is classed as cell-based. On the procedure:
as §1, with “NCI-H727” for “SK—CO-1”, “No. CRL-5815)” for “HTB-39)”, “RPMI ATCC-Formulation (PAN P04-18047)+10%” for “EMEM (Sigma M5650)+10%”
as §2
In turn, `C[C@H](Oc1nc(-c2noc3c2CCC[C@@]32SCCc3sc(N)c(C#N)c32)nc2c1COC[C@]21CCOC1)[C@@H]1CCCN1C` [II-16] showed an IC50 of 1 nM.
`C[C@H](Oc1nc(-c2onc3c2CCC[C@@]32CCCc3sc(N)c(C#N)c32)nc2c1n(C)c(=O)n2[C@@H]1CCOC1)[C@@H]1CC[C@H](C)N1C` [I-26] returned an IC50 of 4 nM.
Consider `CO[C@H]1CCN(C)[C@@H]1[C@H](C)Oc1nc(-c2onc3c2CCC[C@@]32CCCc3sc(N)c(C#N)c32)nc2c1n(C)c(=O)n2[C@@H]1CCCOC1` [I-6], for which 3 nM corresponded to half-maximal inhibition (IC50).
Turning to `C[C@H](Oc1nc(-c2noc3c2CCC[C@@]32CCCc3sc(N)c(C#N)c32)nc2c1COC[C@]21CCOC1)[C@@H]1CCCN1C` [II-8], the IC50 turned out to be 1 nM. Compared with the last compound, the IC50 is about 3-fold lower.
Take `CO[C@@H]1C[C@@H]([C@H](C)Oc2nc(-c3onc4c3CCC[C@@]43CCCc4sc(N)c(C#N)c43)nc3c2n(C)c(=O)n3[C@@]23COC[C@@H]2C3)N(C)C1` [I-46]: half-maximal inhibition (IC50) was put at 2 nM.
Same read-out and setting: under `C[C@H](Oc1nc(-c2noc3c2CCC[C@@]32CCCc3sc(N)c(C#N)c32)nc2c1CNC[C@]21CCOC1)[C@@H]1CCCN1C` [II-15] stands 3 nM; under `C[C@H](Oc1nc(-c2onc3c2CCC[C@@]32CCCc3sc(N)c(C#N)c32)nc2c1n(C)c(=O)n2[C@H]1CCC[C@@H]1O)[C@@H]1CCCN1C` [I-19], 116 nM; under `CO[C@H]1CCN(C)[C@@H]1[C@H](C)Oc1nc(-c2noc3c2CCC[C@@]32CCCc3sc(N)c(C#N)c32)nc2c1n(C)c(=O)n2[C@@H]1CCOC1` [II-1], 2 nM.
`C[C@H](Oc1nc(-c2onc3c2CCC[C@@]32CCCc3sc(N)c(C#N)c32)nc2c1n(C)c(=O)n2[C@H]1CCOC1)[C@@H]1CCCN1C` [I-9] had an IC50 of 138 nM.
As for `C[C@H](Oc1nc(-c2onc3c2CCC[C@@]32CCCc3sc(N)c(C#N)c32)nc2c1[nH]c(=O)n2[C@@H]1CCCOC1)[C@@H]1CCCN1C` [I-13], the IC50 was found to be 13 nM. Against the preceding compound, the IC50 is about 11-fold lower.
Turning to `CO[C@@H]1C[C@@H]([C@H](C)Oc2nc(-c3noc4c3CCC[C@@]43CCCc4sc(N)c(C#N)c43)nc3c2n(C)c(=O)n3[C@@]23COC[C@@H]2C3)N(C)C1` [II-6], half-maximal inhibition (IC50) was put at 1 nM.

The values are drawn from US20250019385A1, “SPIROCYCLIC ANNULATED 2-AMINO-3-CYANO THIOPHENES AND DERIVATIVES FOR THE TREATMENT OF CANCER” (Boehringer Ingelheim International GmbH, priority 2023, published 2025).
